The record followed here is ChEMBL document CHEMBL4673331 (J Med Chem, 2020).

Series [1] concerns the target T1, Mucosa-associated lymphoid tissue lymphoma translocation protein 1 (Homo sapiens) (UniProt Q9UDY8).
T1 sequence (whole entry): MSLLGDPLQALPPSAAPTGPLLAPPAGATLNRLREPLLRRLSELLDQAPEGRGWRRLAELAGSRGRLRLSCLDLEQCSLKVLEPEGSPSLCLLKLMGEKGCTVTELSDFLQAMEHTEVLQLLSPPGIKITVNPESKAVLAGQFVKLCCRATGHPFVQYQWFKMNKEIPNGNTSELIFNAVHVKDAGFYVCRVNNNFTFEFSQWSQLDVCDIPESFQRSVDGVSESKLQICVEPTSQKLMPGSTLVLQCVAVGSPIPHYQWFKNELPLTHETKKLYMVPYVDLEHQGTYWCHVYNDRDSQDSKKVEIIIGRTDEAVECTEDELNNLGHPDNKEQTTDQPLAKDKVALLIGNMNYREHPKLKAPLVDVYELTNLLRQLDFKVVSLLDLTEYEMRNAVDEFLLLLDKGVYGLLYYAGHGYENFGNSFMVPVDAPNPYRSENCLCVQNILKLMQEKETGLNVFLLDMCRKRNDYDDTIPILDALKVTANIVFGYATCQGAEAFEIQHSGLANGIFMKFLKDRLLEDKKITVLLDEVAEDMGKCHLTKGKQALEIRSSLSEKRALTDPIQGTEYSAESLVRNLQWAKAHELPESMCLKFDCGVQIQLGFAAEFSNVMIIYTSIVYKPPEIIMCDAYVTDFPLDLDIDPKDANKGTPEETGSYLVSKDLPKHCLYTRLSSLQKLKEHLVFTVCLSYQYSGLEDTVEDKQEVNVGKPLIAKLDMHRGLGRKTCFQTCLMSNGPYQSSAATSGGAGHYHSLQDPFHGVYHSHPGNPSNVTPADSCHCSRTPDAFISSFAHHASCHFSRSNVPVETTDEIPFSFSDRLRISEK
The series is described as follows: Allosteric inhibition of MALT1 in human OCI-LY3 cells assessed as repression of IRF4 at 50 to 5000 nM incubated for 24 hrs by Western blot analysis. Format: cell-based. Conditions: OCILY3, filed as negative allosteric modulator, dose 50-5000 nM.

Series [2] concerns Mus musculus. The series is described as follows: Immunomodulatory activity in human TMD8 cells xenografted SCID mouse assessed as decrease in IL-10 production in tumor at 100 mg/kg, po. In kind it is functional, organism-based.
Series [3] has as its system BMDM. The series is described as follows: Cytotoxicity against mouse Bone marrow-derived macrophage cells assessed as reduction in cell viability by [3H]-thymidine incorporation assay. In kind it is cell-based.
The test system of series [4] is Mus musculus. Kind of series: Immunomodulatory activity in human TMD8 cells xenografted po dosed SCID mouse assessed as increase in levels of uncleaved BCL10 in tumor administered twice daily for 2 weeks. Conditions: dose mg/kg 10-100, time 2.0 weeks. In kind it is functional, organism-based.
Series [5] is described as follows: Intrinsic clearance in mouse liver microsome. In kind it is ADME. Conditions: liver microsomes, read-out: CLH.
The nature of series [6]: Thermodynamic solubility of the compound at pH 6.8. In kind it is physicochemical. The conditions noted are these: buffer, read-out: Therm_solubility.
The target of series [7] is T2, Mucosa-associated lymphoid tissue lymphoma translocation protein 1 (Homo sapiens, UniProt Q9UDY8).
T2 sequence (Q9UDY8 whole entry): T1 sequence (whole entry)
Kind of series: Allosteric inhibition of human wild-type […] MALT1 (329 to 824 residues) protease activity using Ac-Leu-Arg-Ser-Arg Rh110-dPro as substrate preincubated for 60 mins followed by substrate addition and measured after 60 mins by fluorescence assay.

A short description of series [8]: Inhibition of mixed lymphocyte reaction in human PBMC cells assessed as reduction in [3H]-thymidine incorporation measured after 5 days in presence of Il-7 by microbeta counting method. In kind it is functional, cell-based.
Series [9] in a line: Drug concentration in Balb/c mouse blood at 30 mg/kg, po BID by LC-MS/MS analysis. Format: ADME, organism-based. The conditions noted are these: in vivo, read-out: Drug uptake.
Series [10] relates to OCI-Ly3. Kind of series: Antiproliferative activity against human OCI-LY3 cells assessed as assessed as reduction in colony formation incubated for 14 days by soft-agar assay. In kind it is functional, cell-based. The conditions noted are these: dose 19.5-10000 nM, time 14.0 day.
A short description of series [11]: Clearance in Balb/c mouse at 1 mg/kg, iv administered as cassette dosing. In kind it is ADME, organism-based. The conditions noted are these: in vivo.
Series [12] has as its target T1, Mucosa-associated lymphoid tissue lymphoma translocation protein 1 (Homo sapiens). The series is described as follows: Allosteric inhibition of MALT1 protease activity in human OCI-LY3 cells assessed as accumulation of uncleaved substrate CYLD incubated for 24 hrs by Western blot analysis. In kind it is cell-based. The conditions noted are these: OCILY3, filed as negative allosteric modulator, dose 50-5000 nM.

Series [13] is described as follows: Oral bioavailability in Sprague-Dawley rat at 3 mg/kg administered as cassette dosing. In kind it is ADME, organism-based. Conditions: in vivo.
Series [14] is described as follows: Half-life in Balb/c mouse at 1 mg/kg, iv administered as cassette dosing. Format: ADME, organism-based. The conditions noted are these: in vivo.
The nature of series [15]: Volume of distribution at steady state in Sprague-Dawley rat at 1 mg/kg, iv administered as cassette dosing. Format: ADME, organism-based. Conditions: in vivo, read-out: Vdss.
In series [16] the test system is BJAB. The series is described as follows: Antiproliferation activity against human BJAB cells assessed as reduction in cell viability incubated for 14 days by resazurin dye-based fluorescence analysis. Format: functional. Conditions: 336 h.
Series [17] in a line: Drug concentration in Balb/c mouse blood at 30 mg/kg, po BID administered at 12 hrs interval immunized post 1 hr first treatment measured after 12 hrs post second dose by LC-MS/MS analysis. Conditions: whole blood, read-out: Drug uptake. Format: ADME, organism-based.
Series [18] is described as follows: Tmax in human TMD8 cells xenografted SCID mouse at 100 mg/kg, po qd by UPLC-MS/MS analysis. In kind it is ADME, organism-based. Conditions: in vivo.
Series [19] concerns OCI-Ly3. Kind of series: Antiproliferation activity against human OCI-LY3 cells assessed as reduction in cell viability incubated for 14 days by resazurin dye-based fluorescence analysis. The conditions noted are these: OCI-Ly3, 336 h. In kind it is functional.
The nature of series [20]: Permeability of compound by PAMPA assay. Format: ADME.
The nature of series [21]: Inhibition of mixed lymphocyte reaction in rat PBMC cells assessed as reduction in [3H]-thymidine incorporation measured after 5 days in presence of Il-7 by microbeta counting method. Format: cell-based.

Each structure is given as a SMILES string. pIC50: −log10 of the molar value. ≈ marks a conversion by molar mass, not a printed value. Calls of active or inactive are those of the source. The calls are words filed in the database; no cut-off is given here. Where only a bound is given, the exact number is not on record here.

As for `C[C@H]1COC[C@H](C)N1c1c(NC(=O)Nc2ccnc(C(F)(F)F)c2)cnc2cc(Cl)nn12`, the inhibition result in series [1] is “Active”. The outcome in [2] was Active. The pIC50 in [3] was under 5.00; in series [7] it was 8.05; in series [8], 6.72; in series [16], 5.70; in [19] it was under 5.00; in series [21], 6.22. The Activity result in series [4] and in [10] was “Dose-dependent effect” each time. Besides, the microsomal CLint in series [5] stood at 82 µL/min/mg. The solubility thermodynamic in series [6] turned out to be 4 µg/mL (≈ 8.51 µM). Moreover, in series [9], the concentration came out at 9.3 µM. The compound also gave a clearance in series [11] of 11 mL/min/kg. Also, the inhibition result in series [12] was “Dose-dependent effect”. Moreover, the bioavailability in series [13] is 61%. In [14], this compound showed a half-life of 1.9 h. Besides, in [15], the Vd amounted to 9.4 L/kg. Moreover, the concentration at 12 h in series [17] amounted to 0.12 µM. Further, the Tmax in series [18] worked out at 2 h. For the same compound, the “log(permeability)” value in series [20] was -4.2.
